Assay results as given in PMC11995724, “Antibiotic target discovery by integrated phenotypic and activity-based profiling of electrophilic fragments” (Cell chemical biology, 2025).

Test: in vitro
Settings: human, hek293t cells

In order of rising viability at 48 h, 25 µM:
1. Cc1ccc(NC(=O)C2CSCN2C(=O)CCl)c(C)c1 (stereo not drawn) [5-M07, 3-(2-chloroacetyl)-N-(2,4-dimethylphenyl)-1,3-thiazolidine-4-carboxamide]  0.0812%
2. O=C(CCl)N1N=C(c2cccc(F)c2)CC1c1cccs1 (stereo not drawn) [4-E22, 2-chloro-1-[3-(3-fluorophenyl)-5-(thiophen-2-yl)-4,5-dihydro-1H-pyrazol-1-yl]ethan-1-one]  0.0972%
3. CCN(C(=O)CCl)c1cccc2ccccc12 [5-B08, 2-chloro-N-ethyl-N-(naphthalen-1-yl)acetamide]  0.156%
4. CN(CCC1CCCCC1)C(=O)CCl [5-A06, 2-chloro-N-(2-cyclohexylethyl)-N-methylacetamide]  0.304%
5. O=C(CCl)Nc1nnc(-c2ccccc2Cl)s1 [6-K17, 2-chloro-N-[5-(2-chlorophenyl)-1,3,4-thiadiazol-2-yl]acetamide]  0.539%
6. COc1ccc([N+](=O)[O-])cc1NC(=O)CCl [4-P17, 2-chloro-N-(2-methoxy-5-nitrophenyl)acetamide]  0.714%
7. CCc1ccc(C(=O)CCl)cc1 [10-F18, 2-chloro-1-(4-ethylphenyl)ethan-1-one]  1.07%
8. Cn1c(-c2ccccc2)c(C(=O)CCl)c2ccccc21 [10-N04, 2-chloro-1-(1-methyl-2-phenyl-1H-indol-3-yl)ethan-1-one]  1.67%
9. CC(CO)(Cc1ccc(F)cc1)NC(=O)CCl (stereo not drawn) [7-F06, 2-chloro-N-{2-[(4-fluorophenyl)methyl]-1-hydroxypropan-2-yl}acetamide]  3.71%
10. O=C(CCl)NC(c1ccccc1)C1CCCC1 (stereo not drawn) [6-O18, 2-chloro-N-[cyclopentyl(phenyl)methyl]acetamide]  8.29%
11. N#CC(=Cc1cccc(F)c1F)C(=O)NCc1ccccc1 [8-B06, N-benzyl-2-cyano-3-(2,3-difluorophenyl)prop-2-enamide]  27.1%
12. NC(=O)Cc1ccc(C(=O)CCl)s1 [10-A21, 2-[5-(2-chloroacetyl)thiophen-2-yl]acetamide]  46.6%
13. C=CC(=O)N(Cc1ccc(F)c(C)c1)CC1(O)CCSCC1 [2-E13, N-[(4-fluoro-3-methylphenyl)methyl]-N-[(4-hydroxythian-4-yl)methyl]prop-2-enamide]  55.6%
14. C=CC(=O)NC(C)Cn1nc(C)cc1C (stereo not drawn) [1-F10, N-[1-(3,5-dimethyl-1H-pyrazol-1-yl)propan-2-yl]prop-2-enamide]  55.7%
15. CSc1nsc(NC(=O)CCl)n1 [4-C13, 2-chloro-N-[3-(methylsulfanyl)-1,2,4-thiadiazol-5-yl]acetamide]  63.6%
16. C=CC(=O)NCc1ccccc1S(=O)(=O)N1CCCC1 [2-L17, N-{[2-(pyrrolidine-1-sulfonyl)phenyl]methyl}prop-2-enamide]  68.6%
17. Cc1ccc(C)c(NC(=O)C(C#N)=Cc2ccc(N3CCCCC3)o2)c1 [9-D12, 2-cyano-N-(2,5-dimethylphenyl)-3-[5-(piperidin-1-yl)furan-2-yl]prop-2-enamide]  69.5%
18. C=CC(=O)N1CCC(C)C1 (stereo not drawn) [2-H17, 1-(3-methylpyrrolidin-1-yl)prop-2-en-1-one]  71.5%
19. C=CC(=O)N1CCC(C(=O)NCc2ncccc2OC)CC1 [3-H05, N-[(3-methoxypyridin-2-yl)methyl]-1-(prop-2-enoyl)piperidine-4-carboxamide]  73.5%
20. CN(c1ccc(C(=O)CCl)cc1)S(C)(=O)=O [10-F19, N-[4-(2-chloroacetyl)phenyl]-N-methylmethanesulfonamide]  74%
21. CC(Cl)C(=O)NC(c1cccc(C(F)(F)F)c1)c1nnc[nH]1 (stereo not drawn) [7-M17, 2-chloro-N-[(4H-1,2,4-triazol-3-yl)[3-(trifluoromethyl)phenyl]methyl]propanamide]  75.1%
22. C=CC(=O)N1CCC(C(=O)NCC(C)(C)C2(O)CCCC2)CC1 [2-D14, N-[2-(1-hydroxycyclopentyl)-2-methylpropyl]-1-(prop-2-enoyl)piperidine-4-carboxamide]  76.9%
23. CC(Cl)C(=O)NC(Cc1ccccc1)c1ncco1 (stereo not drawn) [7-E12, 2-chloro-N-[1-(1,3-oxazol-2-yl)-2-phenylethyl]propanamide]  84.4%
24. C=CC(=O)N1CCC(c2nc3c(s2)CCC3)CC1 [3-I22, 1-(4-{4H,5H,6H-cyclopenta[d][1,3]thiazol-2-yl}piperidin-1-yl)prop-2-en-1-one]  91.2%
25. CC(Cl)C(=O)NCc1nc(N(C)C)no1 (stereo not drawn) [7-A04, 2-chloro-N-{[3-(dimethylamino)-1,2,4-oxadiazol-5-yl]methyl}propanamide]  92.2%
26. Cc1ccc(NC(=O)NC(=O)C(C)Cl)c(C)c1 (stereo not drawn) [6-J04, 3-(2-chloropropanoyl)-1-(2,4-dimethylphenyl)urea]  96.6%
27. CC(Cl)C(=O)Nc1cccc2ccccc12 (stereo not drawn) [5-N12, 2-chloro-N-(naphthalen-1-yl)propanamide]  99.8%
28. N#CC(C(=O)CCl)=C1Nc2cc(Cl)ccc2S1 [10-O08, 4-chloro-2-(5-chloro-2,3-dihydro-1,3-benzothiazol-2-ylidene)-3-oxobutanenitrile]  101%
29. CC(Cl)C(=O)Nc1ccc(S(N)(=O)=O)cc1 (stereo not drawn) [6-B06, 2-chloro-N-(4-sulfamoylphenyl)propanamide]  101%
30. CC(Cl)C(=O)Nc1ccc(NC(=O)c2cccs2)cc1 (stereo not drawn) [6-G07, N-[4-(2-chloropropanamido)phenyl]thiophene-2-carboxamide]  101%
31. C=CC(=O)N1CCC(C(=O)Nc2nncn2C)(c2ccccc2)CC1 [3-O12, N-(4-methyl-4H-1,2,4-triazol-3-yl)-4-phenyl-1-(prop-2-enoyl)piperidine-4-carboxamide]  106%
32. C=CCNC(=O)C(C#N)=Cc1ccc(C)s1 [9-F05, 2-cyano-3-(5-methylthiophen-2-yl)-N-(prop-2-en-1-yl)prop-2-enamide]  108%
33. C=CC(=O)N(Cc1nonc1C)CC1C(C)=CCCC1C (stereo not drawn) [1-F15, N-[(2,6-dimethylcyclohex-2-en-1-yl)methyl]-N-[(4-methyl-1,2,5-oxadiazol-3-yl)methyl]prop-2-enamide]  108%
34. COc1ccc(-c2nn(-c3ccccc3)cc2C=C(C#N)C(N)=O)cc1 [8-L16, 2-cyano-3-[3-(4-methoxyphenyl)-1-phenyl-1H-pyrazol-4-yl]prop-2-enamide]  109%
35. CC(Cl)C(=O)Nc1ccc(S(=O)(=O)N2CCCC2)cc1 (stereo not drawn) [6-M13, 2-chloro-N-[4-(pyrrolidine-1-sulfonyl)phenyl]propanamide]  117%
36. N#CC(=Cc1ccccc1)C(=O)NC1CC1 [9-M15, 2-cyano-N-cyclopropyl-3-phenylprop-2-enamide]  128%
37. N#CC(=Cc1ccc(Cl)cc1)C(=O)Nc1ccccn1 [9-H16, 3-(4-chlorophenyl)-2-cyano-N-(pyridin-2-yl)prop-2-enamide]  128%
38. N#CC1=C(N2CCOCC2)SC(c2cccc([N+](=O)[O-])c2)NC1=O (stereo not drawn) [9-L19, 6-(morpholin-4-yl)-2-(3-nitrophenyl)-4-oxo-3,4-dihydro-2H-1,3-thiazine-5-carbonitrile]  129%
39. C=CC(=O)N(C)Cc1ccncc1 [1-N21, N-methyl-N-[(pyridin-4-yl)methyl]prop-2-enamide]  135%
